Assay results as given in paper PMC2834293 (Journal of medicinal chemistry, 2010).

Columns and labels:
[1] = target: recombinant soluble human furin (Homo sapiens, UniProt P09958); assay: Enzyme kinetics with furin; assay type: biochemical
[2] = test system: fowl plague virus (FPV, Rostock strain); details: 25 μM inhibitor, up to 72 h
[3] = Stability of stock solution in water; assay type: physicochemical; details: room temperature, two weeks
[4] = test system: fowl plague virus hemagglutinin cleavage in MDCK cells; assay type: cell-based, influenza virus A/FPV/Rostock/34 (H7N1); details: FPV-infected MDCK cells; data not shown
furin = details: read-out: Ki furin; cited from earlier work

recombinant soluble human furin, sequence (P09958 108-715 limits assumed): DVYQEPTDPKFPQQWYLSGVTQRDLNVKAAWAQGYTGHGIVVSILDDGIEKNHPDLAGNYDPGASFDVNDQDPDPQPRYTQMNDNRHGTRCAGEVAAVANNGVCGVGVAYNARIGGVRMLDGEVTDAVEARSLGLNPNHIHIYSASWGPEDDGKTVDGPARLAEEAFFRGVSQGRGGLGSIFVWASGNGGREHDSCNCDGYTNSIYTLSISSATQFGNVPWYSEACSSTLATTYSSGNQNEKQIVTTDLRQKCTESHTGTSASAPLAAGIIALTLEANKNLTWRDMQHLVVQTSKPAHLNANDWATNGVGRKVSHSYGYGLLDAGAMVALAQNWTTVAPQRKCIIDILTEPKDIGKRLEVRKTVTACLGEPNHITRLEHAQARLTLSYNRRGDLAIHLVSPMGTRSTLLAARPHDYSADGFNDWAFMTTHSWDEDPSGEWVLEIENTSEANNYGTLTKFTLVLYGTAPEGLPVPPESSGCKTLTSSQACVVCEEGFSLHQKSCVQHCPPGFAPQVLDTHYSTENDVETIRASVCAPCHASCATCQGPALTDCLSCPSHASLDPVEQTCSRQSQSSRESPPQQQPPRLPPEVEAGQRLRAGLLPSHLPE

Molecule	Ki [1] [µM]	activity in the cellular HA cleavage assay compared with inhibitor 15 [4]	further results
N=C(N)c1ccc(CN)cc1 [compound 1, 4-amidinobenzylamine]	1200	–	–
CC(C)[C@H](NC(=O)[C@H](CCCNC(=N)N)NC(=O)Cc1ccccc1)C(=O)N[C@@H](CCCNC(=N)N)C(=O)NCc1ccc(C(=N)N)cc1 [compound 15, Phac-Arg-Val-Arg-4-(amidomethyl)benzamidine]	–	–	viability of the cells in the presence of inhibitor ([2]; MDCK cells): not noticeably influenced; delay of virus release versus untreated infected cultures ([2]; MOI 10^-5, MDCK cells): about 24 h; change in HPLC elution profile on storage [3]: could not detect any change
CCCCCCCCCC(=O)N[C@@H](CCCNC(=N)N)C(=O)N[C@H](C(=O)N[C@@H](CCCNC(=N)N)C(=O)NCc1ccc(C(=N)N)cc1)C(C)C [compound 16]	–	Very similar results	–
CC(=O)N[C@@H](CCCNC(=N)N)C(=O)N[C@H](C(=O)N[C@@H](CCCNC(=N)N)C(=O)NCc1ccc(C(=N)N)cc1)C(C)C [compound 17]	–	reduced activity	–
N=C(N)c1ccccc1 [benzamidine, reference compound]	750	–	–
nona-D-arginine	–	–	Ki (furin): 0.0013 µM
